Consider 2 compounds from patent publication US7897593B2, “HIV integrase inhibitors” (priority 2006, dated 2011).

For one test, the target named is T1, purified integrase (Human immunodeficiency virus type 1 group M subtype B, UniProt P12497).
T1 construct: Recombinant integrase (0.26 ng) was incubated with the beads
As to the kind of experiment: HIV-Integrase binding assay (competition with radiolabeled integrase inhibitor). Particulars: competition with [3H]-labeled integrase inhibitor; Cheng and Prusoff. On the procedure:
HIV-Integrase binding assay. In this assay competitive binding experiments with test compounds and a radiolabeled integrase inhibitor (compound A) are performed against purified integrase. […] Binding reactions were carried out in 96-well white polystyrene assay plates (Corning, #3600). The following was added sequentially to each well: 20 μl of water or 20μl of human serum (Cellgro Cat# 35-060-CL), 5 μl of serially diluted compound (in 50% DMSO/50% integrase SPA buffer), 5 μl of [^3H]-compound I (6,000 cpm/μl in SPA buffer) and 20 μl of bead/DNA/enzyme complex. The plates were shaken for 2 hours and then allowed to sit at room temperature without shaking overnight. The [^3H]-compound I binding was measured using a Topcount scintillation counter. Cheng and Prusoff equations were used to convert the inhibition of compound 1 binding into the corresponding Ki value. Activity equal to A refers to a compound having Ki=0.001 to 0.003 μM while B and C denote compounds having Ki=0.003 to 0.05 μM and Ki≧0.050 μM respectively.

For test [1], the system named is recombinant NL-Rluc virus. As to the kind of experiment: Inhibition of HIV replication. The class given is cell-based. As to conditions: Human immunodeficiency virus 1, read-out: Antiviral Activity, NL-RLuc virus; three serum conditions described, the one tabulated is not stated.

The structures appear in SMILES notation.

`Cc1ncnn1-c1cc(F)ccc1CNC(=O)c1nc2n(c(=O)c1O)CCCOC21CCN(C(=O)C(=O)N(C)C)CC1` [Example 74, 1-(2-(Dimethylamino)-2-oxoacetyl)-N-(4-fluoro-2-(5-methyl-1H-1,2,4-triazol-1-yl)benzyl)-3′-hydroxy-4′-oxo-4′,6′,7′,8′-tetrahydrospiro[piperidine-4,10′-pyrimido[2,1-c][1,4]oxazepine]-2′-carboxamide]: the inhibitory constant (Ki) on purified integrase lay within 3 to 50 nM. Also, the EC50 in test [1] was > 100 nM.
Turning to `CN(C)C(=O)C(=O)N1CCC2(CC1)OCCCn1c2nc(C(=O)NCc2ccc(F)cc2)c(O)c1=O` [Example 75, 1-(2-(Dimethylamino)-2-oxoacetyl)-N-(4-fluorobenzyl)-3′-hydroxy-4′-oxo-4′,6′,7′,8′-tetrahydrospiro[piperidine-4,10′-pyrimido[2,1-c][1,4]oxazepine]-2′-carboxamide], on purified integrase, the Ki was in the range of 3 to 50 nM. The EC50 in test [1] was in the range of 10 to 100 nM.

A word on the Ki: it is a measure of affinity in units of concentration, obtained from inhibition or displacement. Low readings indicate a stronger hold on the target, high ones a looser hold on the target.
